Patent US20190248739A1 (NEWLINK GENETICS CORPORATION, priority 2015, published 2019)
Where a name gives a salt, the structure may show the parent alone. Marks after values point to notes of the source that are not given here. Blank lines part the entries; values can stand above or below the compound they belong to. Where a SMILES comes first, the peptide text is derived from it. [ ]: non-standard residue; d: D form. dTrp(1-Me) = Cn1cc(C[C@@H](N)C(=O)O)c2ccccc21

Assays:
[1] = pharmacokinetic testing of indoximod prodrug salts in solid capsule formulation in rats; assay type: in vivo; conditions: rats; for increase in indoximod AUC versus equivalent molar dose of indoximod / increase in indoximod Cmax versus equivalent molar dose of indoximod: dose not given (Tables 10.2, 10.3); for % Change Cmax / % Change in AUC: vs indoximod free base, oral capsules
Protocol: These blends were formulated so that each capsule contained the same molar dose of each prodrug. […] The composition and uniformity of a representative sample of capsules from each batch was verified by weight and by LC-MS/MS to determine the average indoximod or prodrug content.
(§1) Rats were fasted 16 h prior to dosing to eliminate any confounding food effects, and food was returned 2 h after dosing.

[2] = hygroscopicity and stability of indoximod and its salts; assay type: physicochemical; conditions: Table 2, in % (unit assumed)
[3] = solubility of indoximod and its salts in water, buffers and SGF; assay type: physicochemical; conditions: 25° C.; for pH of the SGF solution (in brackets): SGF solubility test; for pH of the water solution (in brackets): water solubility test
[4] = pharmacokinetic testing of indoximod salts in capsule formulation in rats; assay type: in vivo; conditions: capsules
Protocol: Three dose levels were investigated: 37, 185 or 500 μmol/kg.
Capsules were manually filled and the composition uniformity of a representative sample of capsules from each batch was verified by weight and by LC-MS/MS to determine the average indoximod content.
as §1

[5] = pharmacokinetic testing of indoximod prodrugs in liquid formulation in mice; conditions: mice; for change in indoximod Cmax versus indoximod in suspension: oral, all doses tested (10, 50 and 100 mg/kg)
Protocol: Blood samples (0.1-0.2 mL) were collected from the femoral artery port from rats or by retro-orbital bleeding from mice and plasma was immediately collected by centrifugation and stored on dry ice to avoid prodrug hydrolysis after plasma collection. […] The pharmacokinetic parameters reflect the average of individual parameter values obtained from each individual rat (n) or one common parameter from a single pharmacokinetic curve derived from blood samples obtained from a group of mice (n).

[6] = listed as Mesylate, methanesulfonate
[7] = 37 μmol/kg, listed as Indoximod phosphate, phosphate
[8] = 185 μmol/kg, listed as Indoximod phosphate, phosphate
[9] = 500 μmol/kg, listed as Indoximod phosphate, phosphate
[10] = Table 10.2, dose 37 μmol/kg, salt form HCl
[11] = Table 10.2, dose 185 μmol/kg, salt form H3PO4
[12] = Table 10.2, dose 185 μmol/kg, salt form HCl
[13] = Table 10.1, dose 37 μmol/kg, salt form free base
[14] = Table 10.3, dose 37 μmol/kg, salt form free base

change in indoximod AUC compared to indoximod ([1]; capsules, 500 μmol/kg): minor increase
change in indoximod Cmax compared to indoximod ([1]; capsules, 500 μmol/kg): minor increase
increase in indoximod Cmax versus indoximod ([1]; capsules, 37-185 μmol/kg): significant increases
Compound: CCOC(=O)[C@@H](Cc1cn(C)c2ccccc12)NC(=O)[C@@H](N)CC(C)C.Cl [NLG-1564, ethyl N^α-(L-leucyl)-1-methyl-D-tryptophanate hydrochloride]

change in indoximod AUC versus indoximod ([1]; capsules, 37-500 μmol/kg): statistically significant increase
change in indoximod Cmax versus indoximod ([1]; capsules, 37-500 μmol/kg): statistically significant increase
Compound: CCOC(=O)[C@@H](Cc1cn(C)c2ccccc12)NC(=O)[C@@H](N)CCSC [NLG-3272, ethyl N^α-(L-methionyl)-1-methyl-D-tryptophanate] (H-Met-[dTrp(1-Me)]-OEt)

increase in indoximod Cmax versus indoximod ([1]; capsules, 37-185 μmol/kg, methanesulfonate): significant increases
Compound: CCOC(=O)[C@@H](Cc1cn(C)c2ccccc12)NC(=O)[C@@H](N)CC(C)C [NLG-1666, (S)-1-(((R)-1-ethoxy-3-(1-methyl-1H-indol-3-yl)-1-oxopropan-2-yl)amino)-4-methyl-1-oxopentan-2-aminium methanesulfonate]

Hygroscopicity (0-80% RH) [2, 6]: 0.12*
pH of the SGF solution (in brackets) [3, 6]: 1.43
Solubility (25° C., mg/mL) SGF [3, 6]: 6.0 mg/mL
pH of the water solution (in brackets) [3, 6]: 1.84
Solubility (25° C., mg/mL) Water [3, 6]: 5.1 mg/mL
% Increase over indoximod Free Base (AUC) ([4]; 37 μmol/kg, methanesulfonate): 38%
% Increase over indoximod Free Base (Cmax) ([4]; 37 μmol/kg, methanesulfonate): 28%
AUC(0 −> ∞) ([4]; 37 μmol/kg, methanesulfonate): 537 ± 194 µM·h
Cmax ([4]; 37 μmol/kg, methanesulfonate): 20.3 ± 2 µM
Compound: Cn1cc(C[C@@H](N)C(=O)O)c2ccccc21 [indoximod CH3SO3H, (R)-1-carboxy-2-(1-methyl-1H-indol-3-yl)ethan-1-aminium methanesulfonate]

Compound: Cn1cc(C[C@@H](NC(=O)[C@@H](N)CCCCN)C(=O)O)c2ccccc21 [N^α-(L-lysyl)-1-methyl-D-tryptophan] (H-Lys-[dTrp(1-Me)]-OH)
increase in indoximod AUC versus equivalent molar dose of indoximod ([1]; capsules): minor and non-statistically significant variations
increase in indoximod Cmax versus equivalent molar dose of indoximod ([1]; capsules): minor and non-statistically significant variations

Hygroscopicity (0-80% RH) ([2]; phosphate): 1.7
Solubility (25° C., mg/mL) SGF ([3]; phosphate): 9.83 (NA) mg/mL
Solubility (25° C., mg/mL) Water ([3]; phosphate): 8.32 (NA) mg/mL
% Increase over indoximod Free Base (AUC) [4, 7]: significant increase
% Increase over indoximod Free Base (Cmax) [4, 7]: significant increase
% Increase over indoximod Free Base (AUC) ([4]; 37 μmol/kg, phosphate): 43%
% Increase over indoximod Free Base (Cmax) ([4]; 37 μmol/kg, phosphate): 40%
AUC(0 −> ∞) ([4]; 37 μmol/kg, phosphate): 558 ± 185 µM·h
Cmax ([4]; 37 μmol/kg, phosphate): 22.3 ± 9 µM
% Increase over indoximod Free Base (AUC) [4, 8]: significant increase
% Increase over indoximod Free Base (Cmax) [4, 8]: significant increase
% Increase over indoximod Free Base (AUC) ([4]; 185 μmol/kg, phosphate): 34%
% Increase over indoximod Free Base (Cmax) ([4]; 185 μmol/kg, phosphate): 96%
AUC(0 −> ∞) ([4]; 185 μmol/kg, phosphate): 1446 ± 645 µM·h
Cmax ([4]; 185 μmol/kg, phosphate): 40.9 ± 5 µM
% Increase over indoximod Free Base (AUC) [4, 9]: non-statistically significant decrease
% Increase over indoximod Free Base (Cmax) [4, 9]: significant decrease
% Increase over indoximod Free Base (AUC) ([4]; 500 μmol/kg, phosphate): −34%
% Increase over indoximod Free Base (Cmax) ([4]; 500 μmol/kg, phosphate): −51%
AUC(0 −> ∞) ([4]; 500 μmol/kg, phosphate): 1902 ± 1288 µM·h
Cmax ([4]; 500 μmol/kg, phosphate): 37.2 ± 10 µM
Compound: Cn1cc(C[C@@H](N)C(=O)O)c2ccccc21 [indoximod H3PO4, (R)-1-carboxy-2-(1-methyl-1H-indol-3-yl)ethan-1-aminium dihydrogen phosphate]

% Increase over indoximod Free Base (AUC) ([4]; 37 μmol/kg, hydrogen sulfate): 42%
% Increase over indoximod Free Base (Cmax) ([4]; 37 μmol/kg, hydrogen sulfate): 42%
AUC(0 −> ∞) ([4]; 37 μmol/kg, hydrogen sulfate): 553 ± 196 µM·h
Cmax ([4]; 37 μmol/kg, hydrogen sulfate): 22.6 ± 7 µM
Compound: Cn1cc(C[C@@H](N)C(=O)O)c2ccccc21 [indoximod H2SO4, (R)-1-carboxy-2-(1-methyl-1H-indol-3-yl)ethan-1-aminium hydrogen sulfate]

change in indoximod AUC versus indoximod ([5]; oral, 10, 50 and 100 mg/kg, percentage of increase decreases at higher doses): dose dependent increase
change in indoximod Cmax versus indoximod in suspension [5]: significant increase
Compound: Cn1cc(C[C@@H](N)C(=O)OCC(O)CO)c2ccccc21.O=P(O)(O)O (stereo partly drawn) [NLG-1626, (2R)-1-(2,3-dihydroxypropoxy)-3-(1-methyl-1H-indol-3-yl)-1-oxopropan-2-dihydrogen phosphate]

Compound: CCOC(=O)[C@@H](Cc1cn(C)c2ccccc12)NC(=O)[C@@H](N)CCC(N)=O [ethyl N^α-(L-glutaminyl)-1-methyl-D-tryptophanate] (H-Gln-[dTrp(1-Me)]-OEt)
increase in indoximod AUC versus equivalent molar dose of indoximod ([1]; capsules): minor and non-statistically significant variations
increase in indoximod Cmax versus equivalent molar dose of indoximod ([1]; capsules): minor and non-statistically significant variations

increase in indoximod AUC versus equivalent molar dose of indoximod ([1]; capsules): less significant increases
increase in indoximod Cmax versus equivalent molar dose of indoximod ([1]; capsules): less significant increases
Compound: Cn1cc(C[C@@H](N)C(=O)OCC(O)CO)c2ccccc21 (stereo partly drawn) [NLG-1628, (2R)-1-(2,3-dihydroxypropoxy)-3-(1-methyl-1H-indol-3-yl)-1-oxopropan-2-aminium sulfate]

Hygroscopicity (0-80% RH) [2]: 3.4
Compound: O=S(=O)(O)O [Sulfate]

Solubility (25° C., mg/mL) SGF [3]: 6.0 mg/mL
pH of the SGF solution (in brackets) [3]: 1.84
Solubility (25° C., mg/mL) Water [3]: 5.5 mg/mL
pH of the water solution (in brackets) [3]: 2.34
Compound: CS(=O)(=O)O.Cn1cc(C[C@@H](N)C(=O)O)c2ccccc21.Cn1cc(C[C@@H](N)C(=O)O)c2ccccc21 [Hemi-Mesylate]

increase in exposure (AUC) of indoximod versus indoximod ([1]; capsules, 37-185 μmol/kg): did not result in a significant increase
increase in indoximod Cmax versus indoximod ([1]; capsules, 37-185 μmol/kg): did not result in a significant increase
Compound: CCOC(=O)[C@@H](Cc1cn(C)c2ccccc12)NC(=O)[C@@H](N)CC(C)C [NLG-1691, ethyl N^α-((S)-2-(λ^4-azanyl)-4-methylpentanoyl)-1-methyl-D-tryptophanate sulfate]

% Change Cmax [1, 10]: 16%
% Change in AUC [1, 10]: 24%
% Change Cmax [1, 11]: 118%
% Change in AUC [1, 11]: 66%
% Change Cmax [1, 12]: 345%
% Change in AUC [1, 12]: 181%
Compound: CSCC[C@H](N)C(=O)N[C@H](Cc1cn(C)c2ccccc12)C(=O)O [NLG-3380] (H-Met-[dTrp(1-Me)]-OH)

Compound: Cn1cc(C[C@@H](NC(=O)CN)C(=O)O)c2ccccc21 [Cpd 05, N^α-(L-glycyl)-1-methyl-D-tryptophan] (H-Gly-[dTrp(1-Me)]-OH)
increase in indoximod AUC versus equivalent molar dose of indoximod ([1]; capsules): minor and non-statistically significant variations
increase in indoximod Cmax versus equivalent molar dose of indoximod ([1]; capsules): minor and non-statistically significant variations

% Change Cmax [1, 13]: −17%
% Change in AUC [1, 13]: −13%
Compound: Cn1cc(C[C@@H](NC(=O)[C@@H](N)CCCCN)C(=O)O)c2ccccc21 [NLG-1676] (H-Lys-[dTrp(1-Me)]-OH)

Compound: CCOC(=O)[C@@H](Cc1cn(C)c2ccccc12)NC(=O)C[C@H](N)C(=O)OC.Cl [NLG-1585, methyl N^4-((R)-1-ethoxy-3-(1-methyl-1H-indol-3-yl)-1-oxopropan-2-yl)-L-asparaginate hydrochloride]
increase in indoximod AUC versus equivalent molar dose of indoximod ([1]; capsules): minor and non-statistically significant variations
increase in indoximod Cmax versus equivalent molar dose of indoximod ([1]; capsules): minor and non-statistically significant variations

increase in indoximod AUC versus equivalent molar dose of indoximod ([1]; capsules, hydrochloride): less significant increases
increase in indoximod Cmax versus equivalent molar dose of indoximod ([1]; capsules, hydrochloride): less significant increases
Compound: Cn1cc(C[C@@H](N)C(=O)OCC(O)CO)c2ccccc21 (stereo partly drawn) [NLG-1558, 2,3-dihydroxypropyl 1-methyl-D-tryptophanate hydrochloride]

increase in indoximod AUC versus equivalent molar dose of indoximod ([1]; capsules, methanesulfonate): decrease
increase in indoximod Cmax versus equivalent molar dose of indoximod ([1]; capsules, methanesulfonate): decrease
Compound: Cn1cc(C[C@@H](N)C(=O)OCC(O)CO)c2ccccc21 (stereo partly drawn) [NLG-1627, (2R)-1-(2,3-dihydroxypropoxy)-3-(1-methyl-1H-indol-3-yl)-1-oxopropan-2-aminium methanesulfonate]

% Change Cmax [1, 14]: 5%
% Change in AUC [1, 14]: −16%
Compound: CCOC(=O)[C@@H](Cc1cn(C)c2ccccc12)NC(=O)[C@@H](N)CCC(N)=O [NLG-1672] (H-Gln-[dTrp(1-Me)]-OEt)

increase in indoximod Cmax versus indoximod ([1]; capsules, 37-185 μmol/kg): significant increases
change in indoximod Cmax versus indoximod in suspension [5]: significant increase
Compound: CCOC(=O)[C@@H](Cc1cn(C)c2ccccc12)NC(=O)[C@@H](N)CC(C)C.O=P(O)(O)O [NLG-1665]
